Values joined by “and” are separate entries in the source; they are usually repeats but may differ in a detail not shown here. Identical values can stand only once. Like-named read-outs stand apart in the source and are kept apart here.
Columns and labels:
Assay type in all cases: in vivo
[1] = tested on: Heliothis virescens (tobacco budworm); test: Heliothis virescens eggs in 24-well microtiter plate on artificial diet, larval mortality; settings: Heliothis virescens, 96 h, read-out: AVERAGE DEAD IN %
Description: (§1) The action to be expected E for a given active ingredient combination obeys the so-called COLBY formula and can be calculated as follows (COLBY, S.R. “Calculating synergistic and antagonistic responses of herbicide combination”. Weeds, Vol. 15, pages 20-22; 1967):
(§2) ppm=milligrams of active ingredient (=a.i.) per liter of spray mixture X=% action by active ingredient A) using p ppm of active ingredient Y=% action by active ingredient B) using q ppm of active ingredient.
(§3) According to COLBY, the expected (additive) action of active ingredients A)+B) using p+q ppm of active ingredient is
(§4) If the action actually observed (O) is greater than the expected action (E), then the action of the combination is super-additive, i.e. there is a synergistic effect. In mathematical terms the synergism factor SF corresponds to O/E. In the agricultural practice an SF of ≧1.2 indicates significant improvement over the purely complementary addition of activities (expected activity), while an SF of ≦0.9 in the practical application routine signals a loss of activity compared to the expected activity.
Heliothis Virescens (Tobacco Budworm)
Eggs (0-24 h old) are placed in 24-well microtiter plate on artificial diet and treated with test solutions (DMSO) by pipetting. After an incubation period of 4 days, samples are checked for larval mortality.

[2] = tested on: Tetranychus urticae (two spotted spider mite); test: Tetranychus urticae contact/feeding activity on bean plants, adult mortality
Description: as §1, §2, §3, §4
Tetranychus Urticae (Two Spotted Spider Mite)
(Contact/Feeding Activity)
Bean plants are infested with mite populations of mixed ages. 1 day after infestation, plants are treated in a spray chamber with diluted test solutions. 1 and 8 days later, samples are checked for adult mortality. 2 replicates per treatment were evaluated.

[3] = tested on: Heliothis virescens (tobacco budworm); test: Heliothis virescens ovo-larvicide, feeding/contact, eggs on filter paper in Petri dishes; settings: for AVERAGE DEAD IN % (EGGS) / AVERAGE DEAD IN % (LARVAE): single compound, 7 days; for activity on eggs: egg mortality, 7 days incubation
Description: as §1, §2, §3, §4
Heliothis Virescens (Tobacco Budworm):
(Ovo-Larvicide, Feeding/Contact)
30-35 fresh eggs (0-24 h old), deposited on filter paper, are placed in Petri dishes on top of a layer of artificial diet and 0.8 ml of diluted test solutions are pipetted onto them. After an incubation period of 7 days, samples are checked for egg and larval mortality. 3 replicates per treatment were evaluated.

[4] = tested on: Spodoptera littoralis (Egyptian cotton leaf worm); test: Spodoptera littoralis larvicide L1, feeding/contact, cotton leaf discs; settings: single compound
Description: as §1, §2, §3, §4
Spodoptera Littoralis (Egyptian Cotton Leaf Worm)
(Larvicide L1, Feeding/Contact)
Cotton leaf discs are placed on agar in Petri dishes and sprayed with test solutions in an application chamber. After drying, the leaf discs are infested with 10 L1 larvae. The samples are checked for mortality 5 days after treatment. 3 replicates per treatment were evaluated. (1 PPM=1 mg l^−1)

[5] = single compound at 0.025 ppm AI

CC1(C)[C@H](C(=O)O[C@H](C#N)c2cccc(Oc3ccccc3)c2)[C@@H]1/C=C(\Cl)C(F)(F)F (racemic) [Lambda Cyhalothrin, lambda-cyhalothrin]
pest or weed control at 0.00625 ppm ([1]; Lambda Cyhalothrin alone 0.00625 ppm AI): 0%
pest or weed control at 0.0125 ppm ([1]; Lambda Cyhalothrin alone 0.0125 ppm AI): 0%
pest or weed control at 0.025 ppm ([1]; Lambda Cyhalothrin alone 0.025 ppm AI): 0%
pest or weed control at 0.05 ppm ([1]; Lambda Cyhalothrin alone 0.05 ppm AI): 0%
pest or weed control at 0.1 ppm ([1]; Lambda Cyhalothrin alone 0.1 ppm AI): 25%
pest or weed control at 0.2 ppm ([1]; Lambda Cyhalothrin alone 0.2 ppm AI): 75%
pest or weed control at 0.00625 ppm ([1]; single compound at 0.00625 ppm AI): 0%
pest or weed control at 0.0125 ppm ([1]; single compound at 0.0125 ppm AI): 0%
pest or weed control at 0.025 ppm [1, 5]: 0%
pest or weed control at 0.05 ppm ([1]; single compound at 0.05 ppm AI): 0%
pest or weed control at 0.1 ppm ([1]; single compound at 0.1 ppm AI): 25%
pest or weed control at 0.2 ppm ([1]; single compound at 0.2 ppm AI): 75%
AVERAGE DEAD IN % AFTER 1 DAY ([2]; 3.125 ppm alone): 70%
AVERAGE DEAD IN % AFTER 1 DAY ([2]; 6.25 ppm alone): 90%
AVERAGE DEAD IN % AFTER 8 DAYS ([2]; 6.25 ppm alone): 85% and 90%
AVERAGE DEAD IN % AFTER 1 DAY ([2]; 12.5 ppm alone): 83%
AVERAGE DEAD IN % AFTER 8 DAYS ([2]; 12.5 ppm alone): 98% and 90%
AVERAGE DEAD IN % AFTER 1 DAY ([2]; Lambda Cyhalothrin alone 3.125 ppm AI): 25%
AVERAGE DEAD IN % AFTER 1 DAY ([2]; Lambda Cyhalothrin alone 6.25 ppm AI): 55%
AVERAGE DEAD IN % AFTER 1 DAY ([2]; Lambda Cyhalothrin alone 12.5 ppm AI): 88%
AVERAGE DEAD IN % (EGGS) ([3]; 0.05 ppm AI): 0%
AVERAGE DEAD IN % (LARVAE) ([3]; 0.05 ppm AI, larvae): 33%
AVERAGE DEAD IN % (EGGS) ([3]; 0.1 ppm AI): 17%
AVERAGE DEAD IN % (LARVAE) ([3]; 0.1 ppm AI, larvae): 100%
AVERAGE DEAD IN % (EGGS) ([3]; 0.2 ppm AI): 50%
AVERAGE DEAD IN % (LARVAE) ([3]; 0.2 ppm AI, larvae): 100%
AVERAGE DEAD IN % AFTER 5 DAYS ([4]; 0.05 PPM AI): 10% and 20%
AVERAGE DEAD IN % AFTER 5 DAYS ([4]; 0.05 ppm AI): 20%
AVERAGE DEAD IN % AFTER 5 DAYS ([4]; 0.1 ppm AI): 37%
AVERAGE DEAD IN % AFTER 5 DAYS ([4]; 0.2 ppm AI): 57%

CCOP(=S)(OCC)Oc1nc(Cl)c(Cl)cc1Cl [Chlorpyriphos, chlorpyrifos]
pest or weed control at 25 ppm ([1]; single compound at 25 ppm AI): 45%
pest or weed control at 50 ppm ([1]; single compound at 50 ppm AI): 90%
pest or weed control at 100 ppm ([1]; single compound at 100 ppm AI): 100%
pest or weed control at 200 ppm ([1]; single compound at 200 ppm AI): 100%
pest or weed control at 400 ppm ([1]; single compound at 400 ppm AI): 100%
pest or weed control at 800 ppm ([1]; single compound at 800 ppm AI): 100%
AVERAGE DEAD IN % AFTER 8 DAYS ([2]; 50 ppm alone): 0%
AVERAGE DEAD IN % AFTER 8 DAYS ([2]; 100 ppm alone): 20%
AVERAGE DEAD IN % AFTER 8 DAYS ([2]; 200 ppm alone): 63%
AVERAGE DEAD IN % AFTER 1 DAY ([2]; Chlorpyrifos alone 50 ppm AI): 0%
AVERAGE DEAD IN % AFTER 1 DAY ([2]; Chlorpyrifos alone 100 ppm AI): 60%
AVERAGE DEAD IN % AFTER 1 DAY ([2]; Chlorpyrifos alone 200 ppm AI): 88%
activity on eggs [3]: inactive
AVERAGE DEAD IN % (LARVAE) ([3]; 50 ppm AI, larvae): 0%
AVERAGE DEAD IN % (LARVAE) ([3]; 100 ppm AI, larvae): 0%
AVERAGE DEAD IN % (LARVAE) ([3]; 200 ppm AI, larvae): 30%
AVERAGE DEAD IN % AFTER 5 DAYS ([4]; 12.5 PPM AI): 10% and 7%
AVERAGE DEAD IN % AFTER 5 DAYS ([4]; 25 PPM AI): 17% and 10%
AVERAGE DEAD IN % AFTER 5 DAYS ([4]; 50 PPM AI): 30% and 20%

CNC(=O)c1cc(C#N)cc(C)c1NC(=O)c1cc(Br)nn1-c1ncccc1Cl [Cyantraniliprole, cyantraniliprole]
pest or weed control at 0.025 ppm ([1]; Cyantraniliprole alone 0.025 ppm AI): 0%
pest or weed control at 0.05 ppm ([1]; Cyantraniliprole alone 0.05 ppm AI): 0%
pest or weed control at 0.1 ppm ([1]; Cyantraniliprole alone 0.1 ppm AI): 45%
pest or weed control at 0.2 ppm ([1]; Cyantraniliprole alone 0.2 ppm AI): 78%
pest or weed control at 0.4 ppm ([1]; Cyantraniliprole alone 0.4 ppm AI): 90%
pest or weed control at 0.8 ppm ([1]; Cyantraniliprole alone 0.8 ppm AI): 100%
pest or weed control at 0.025 ppm [1, 5]: 0%
pest or weed control at 0.05 ppm ([1]; single compound at 0.05 ppm AI): 0%
pest or weed control at 0.1 ppm ([1]; single compound at 0.1 ppm AI): 45%
pest or weed control at 0.2 ppm ([1]; single compound at 0.2 ppm AI): 78%
pest or weed control at 0.4 ppm ([1]; single compound at 0.4 ppm AI): 90%
pest or weed control at 0.8 ppm ([1]; single compound at 0.8 ppm AI): 100%
AVERAGE DEAD IN % AFTER 8 DAYS ([2]; 100 ppm alone): 35%
AVERAGE DEAD IN % AFTER 8 DAYS ([2]; 200 ppm alone): 25%
AVERAGE DEAD IN % AFTER 1 DAY ([2]; Cyantraniliprole alone 100 ppm AI): 0%
AVERAGE DEAD IN % AFTER 1 DAY ([2]; Cyantraniliprole alone 200 ppm AI): 10%
activity on eggs [3]: inactive
AVERAGE DEAD IN % (LARVAE) ([3]; 0.2 ppm AI, larvae): 23%
AVERAGE DEAD IN % (LARVAE) ([3]; 0.4 ppm AI, larvae): 70% and 63%
AVERAGE DEAD IN % (LARVAE) ([3]; 0.8 ppm AI, larvae): 82% and 72%
AVERAGE DEAD IN % AFTER 5 DAYS ([4]; 0.0125 PPM AI): 23%
AVERAGE DEAD IN % AFTER 5 DAYS ([4]; 0.025 PPM AI): 27% and 30%
AVERAGE DEAD IN % AFTER 5 DAYS ([4]; 0.05 PPM AI): 40% and 50%

CC1=NNC(=O)N(/N=C/c2cccnc2)C1 [Pymetrozine, pymetrozine]
pest or weed control at 25 ppm ([1]; Pymetrozine alone 25 ppm AI): 0%
pest or weed control at 50 ppm ([1]; Pymetrozine alone 50 ppm AI): 0%
pest or weed control at 100 ppm ([1]; Pymetrozine alone 100 ppm AI): 0%
pest or weed control at 200 ppm ([1]; Pymetrozine alone 200 ppm AI): 0%
pest or weed control at 400 ppm ([1]; Pymetrozine alone 400 ppm AI): 0%
pest or weed control at 800 ppm ([1]; Pymetrozine alone 800 ppm AI): 0%
pest or weed control at 25 ppm ([1]; single compound at 25 ppm AI): 0%
pest or weed control at 50 ppm ([1]; single compound at 50 ppm AI): 0%
pest or weed control at 100 ppm ([1]; single compound at 100 ppm AI): 0%
pest or weed control at 200 ppm ([1]; single compound at 200 ppm AI): 0%
pest or weed control at 400 ppm ([1]; single compound at 400 ppm AI): 0%
pest or weed control at 800 ppm ([1]; single compound at 800 ppm AI): 0%
AVERAGE DEAD IN % AFTER 8 DAYS ([2]; 200 ppm alone): 0%
AVERAGE DEAD IN % AFTER 1 DAY ([2]; Pymetrozine alone 200 ppm AI): 5%
activity on eggs [3]: inactive
AVERAGE DEAD IN % (LARVAE) ([3]; 100 ppm AI, larvae): 0%
AVERAGE DEAD IN % (LARVAE) ([3]; 200 PPM AI): 37%
AVERAGE DEAD IN % (LARVAE) ([3]; 200 ppm AI, larvae): 40%
AVERAGE DEAD IN % AFTER 5 DAYS ([4]; 100 PPM AI): 17% and 7%
AVERAGE DEAD IN % AFTER 5 DAYS ([4]; 100 ppm AI): 7%
AVERAGE DEAD IN % AFTER 5 DAYS ([4]; 200 PPM AI): 20% and 17%
AVERAGE DEAD IN % AFTER 5 DAYS ([4]; 200 ppm AI): 17%
